{"source": "patent US10195212B2", "about": "“Glucocorticoid-loaded nanoparticles for prevention of corneal allograft rejection and neovascularization” (The Johns Hopkins University, priority 2014, dated 2019)", "key": {"[1]": {"conditions": "hydrocortisone = 1; cited from earlier work"}, "[2]": {"test": "In vivo ocular DSP levels after SC injection ([3H]-labeled DSP)", "parameters": "species or system Sprague Dawley rat", "description": "Nanoparticles were suspended in saline at 20 μCi/mL. […] 40 μL (˜0.8 μCi per eye) of same formulation was injected to both eyes of the same animal (Sprague Dawley rat). At the indicated time intervals, 2 h, 1 day, 3 day, 5 day and 7 day after injection, the rats were anesthetized by intramuscular injection of ketamine/xylazine solution. The animal was sacrificed after collecting two drops of blood from the tail vein.\nThe eye ball with conjunctiva tissue was carefully removed from rats and rinsed with PBS, dried by Kimwipe tissue. The anterior chamber humor, cornea, vitreous, retina and the remaining eye ball tissue were carefully dissected and collected. Both cornea and retina tissues were rinsed with PBS and dried with Kimwipe tissue. All the samples were weighed, dissolved with 2 mL of Solvable by incubation at 50° C. overnight. Blood samples were bleached with 0.2 ml H2O2 and 20 μL, 0.5M EDTA. 10 ml […] scintillation medium was added before counting the radioactivity in a scintillation counter. The results were expressed as a percentage of the injected dose and are the mean±sd of four eyes (2 animals) per data point. […] Total percentage of injected dose at the periocular tissue and the radioactivity per mg (or mL) of tissue were calculated.\nFifty μL (˜0.8 per eye) of the same formulation was administered to both eyes of the same animal (Sprague Dawley rat) through SC injection. At POD14, the rats under anesthesia were sacrificed after collecting two drops of blood from the tail vein. The aqueous, vitreous, and the remaining ocular tissues containing injection sites were carefully dissected and collected. All the samples were weighed and then dissolved with 2 mL of Solvable (Perkin Elmer, Waltham, Mass.) by incubation at 50° C. overnight. Blood samples were bleached with 0.2 mL H2O2 and 20 μL 0.5M EDTA. Ten milliliters of Ultima gold scintillation medium (Perkin Elmer, Waltham, Mass.) was added before counting the radioactivity in a scintillation counter (Perkin Elmer, Waltham, Mass.). The results were expressed as a percentage of the injected dose and are the mean±standard deviation (SD) of four eyes per data point. […] The total percentage of the injected dose at the injection sites and the radioactivity per mg of tissue or mL of blood were calculated."}, "[3]": {"test_system": "transplanted corneal grafts", "test": "Corneal allograft rejection after penetrating keratoplasty, weekly SC injection", "type": "in vivo, Lewis rats", "conditions": "for survival rate of cornea grafts: weekly SC 50 μL at 1 mg DSP/mL", "description": "All procedures performed with rats were approved by the Johns Hopkins University Animal Care and Use Committee. The Brown-Norway donor rats were sacrificed and the central corneal button of both eyes were removed with a 4.0-mm trephine and kept in physiological solution ready for use. The surgery was performed by a corneal surgeon (QP) under an operating microscope. The cornea recipient Lewis rats were anesthetized with an intramuscular injection of a mixture of Ketamine (80 mg/kg) and Xylazine (8 mg/kg). Repeated instillations of 0.5% tropicamide eye drops were used on Lewis rats for total pupil dilation before surgery. A paracentesis was performed before trephinization, and the anterior chamber was filled with hyaluronic acid. The corneal buttons were removed from the receptor Lewis rats with a 3.5-mm trephine. The donor corneal button was sutured to receptor cornea with 8 suture points.\nAll groups of animals were undertaken same treatment once every week until the failure of grafts or the end point of study (9 week).\nThe clinical observations with a slit lamp microscope were performed by two ophthalmologists (QP and LT) on post-operational (PO) 2 week for group 1 and group 2, PO 4 week for group 3 and PO 9 week for group 4. Three parameters were evaluated for the examination of the corneal grafts (cornea transparency, edema and neovascularization). The scoring for the parameters is presented below.\nIntraocular pressure was monitored at PO 2 day, 1 week, 2 week, 4 week, 6 week, 8 week and 9 week after the surgery. IOP recorded for each eye is the average of three successful measurements. Animals at the end time points were sacrificed by CO2 and the eyes with PK surgery were enucleated. Eye tissues were fixed with 10% formalin for 24 h before embedding in paraffin. Sections (5 μm) were cut from through the direction of optical nerve and cornea, and stained with H&E."}}, "note": "Where a name gives a salt, the structure may show the parent alone.", "data": [{"smiles": "CC(=O)OCC(=O)[C@@]1(O)[C@H](C)C[C@H]2[C@@H]3C=C(C)C4=Cc5c(cnn5-c5ccccc5)C[C@]4(C)[C@H]3[C@@H](O)C[C@@]21C", "note": "[Cortivazol]", "values": [{"measurement": "Relative Potency of Glucocorticoid", "setting": "[1]", "value": 50}]}, {"smiles": "C[C@@H]1C[C@H]2[C@@H]3CCC4=CC(=O)C=C[C@]4(C)[C@@]3(F)[C@@H](O)C[C@]2(C)[C@@]1(O)C(=O)COP(=O)(O)O", "note": "[DSP, Dexamethasone 21-phosphate sodium salt]", "values": [{"measurement": "DSP level in blood", "setting": "[2]; PO 2 h, SC injection", "value": "≤ 350", "unit": "ng DSP per ml"}, {"measurement": "total dose retained at the conjunctiva tissue", "setting": "[2]; PO 2 h, single SC injection, ~0.08 mg DSP", "value": "Approximately 0.4%"}, {"measurement": "DSP in anterior chamber and vitreous", "setting": "[2]; PO 7 day after SC administration", "value": "not detectable"}, {"measurement": "DSP at the conjunctiva tissue", "setting": "[2]; PO day 1, single SC injection", "value": "almost no DSP can be detected"}, {"measurement": "DSP levels at retina and cornea", "setting": "[2]; SC injection", "value": "very low"}, {"measurement": "time to clearance after SC injection", "setting": "[2]; rat, in vivo, sc", "value": "up to 2 hours"}, {"measurement": "survival rate of cornea grafts", "setting": "[3]; PO 2 week", "value": 100, "unit": "%"}, {"measurement": "survival rate of cornea grafts", "setting": "[3]; PO 3 week", "value": 80, "unit": "%"}, {"measurement": "histological examination of cornea tissues at end point", "setting": "[3]; PO 4 week for DSP, PO 9 week for DSP-NP", "value": "swollen and thicker than the normal healthy cornea"}, {"measurement": "time at which all grafts were rejected", "setting": "[3]; PO, weekly SC injection", "value": 4, "unit": "week"}, {"measurement": "cornea transparency (clinical observation)", "setting": "[3]; weekly SC injection", "value": "as opaque as saline control and NP control groups"}, {"measurement": "graft neovascularization (clinical observation)", "setting": "[3]; weekly SC injection, versus control groups", "value": "less neovascularization"}, {"measurement": "graft edema (clinical observation)", "setting": "[3]; weekly SC injection, versus saline and NP control", "value": "significant less edema"}]}, {"smiles": "C[C@]12CCC(=O)C=C1CC[C@@H]1[C@@H]2[C@@H](O)C[C@@]2(C)[C@H]1CC[C@]2(O)C(=O)CO", "note": "[Hydrocortisone]", "values": [{"measurement": "Relative Potency of Glucocorticoid", "setting": "[1]", "value": 1}]}, {"smiles": "C[C@]12C=CC(=O)C=C1CC[C@@H]1[C@@H]2[C@@H](O)C[C@@]2(C)[C@H]1CC[C@]2(O)C(=O)CO", "note": "[Prednisolone]", "values": [{"measurement": "Relative Potency of Glucocorticoid", "setting": "[1]", "value": 4}]}, {"smiles": "C[C@]12C=CC(=O)C=C1CC[C@H]1[C@@H]3C[C@@H](O)[C@](O)(C(=O)CO)[C@@]3(C)C[C@H](O)[C@@]12F", "note": "[Triamcinolone]", "values": [{"measurement": "Relative Potency of Glucocorticoid", "setting": "[1]", "value": 5}]}]}
